{"source": "ChEMBL document CHEMBL5034018", "about": "“LXR-Mediated Regulation of Marine-Derived Piericidins Aggravates High-Cholesterol Diet-Induced Cholesterol Metabolism Disorder in Mice” (J Med Chem, 2021)", "key": {"[1]": {"test": "Hepatotoxicity in renal carcinoma xenografted C57BL/6 mouse assessed as fold increase in plasma ALT at 0.8 mg/kg, ip", "assay_type": "toxicity, organism-based", "conditions": "in vivo"}, "[2]": {"test": "Hepatotoxicity in renal carcinoma xenografted C57BL/6 mouse assessed as fold increase in plasma AST at 0.8 mg/kg, ip", "assay_type": "toxicity, organism-based", "conditions": "in vivo"}, "[3]": {"target": "T1, Oxysterols receptor LXR-alpha (Homo sapiens, UniProt Q13133)", "T1 sequence (Q13133 whole entry)": "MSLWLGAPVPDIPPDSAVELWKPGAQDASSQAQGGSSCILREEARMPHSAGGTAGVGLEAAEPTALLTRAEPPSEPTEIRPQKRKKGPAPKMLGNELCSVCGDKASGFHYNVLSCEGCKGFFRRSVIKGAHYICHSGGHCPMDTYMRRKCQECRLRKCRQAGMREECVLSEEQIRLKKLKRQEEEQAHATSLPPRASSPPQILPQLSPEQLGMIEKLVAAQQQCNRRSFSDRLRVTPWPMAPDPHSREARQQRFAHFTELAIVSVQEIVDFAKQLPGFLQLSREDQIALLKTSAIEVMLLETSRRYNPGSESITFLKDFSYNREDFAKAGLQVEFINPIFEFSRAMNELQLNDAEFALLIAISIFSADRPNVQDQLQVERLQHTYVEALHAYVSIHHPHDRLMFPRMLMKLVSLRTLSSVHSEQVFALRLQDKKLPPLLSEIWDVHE", "test": "Binding affinity to full-length human LXRalpha by surface plasmon resonance assay"}, "[4]": {"test": "Induction of Cholesterol accumulation in human HepG2 cells assessed as fold increase in LDL-cholesterol level at 10 uM after 48 hrs", "assay_type": "functional"}}, "note": "pKd: −log10 of the molar value.", "data": [{"smiles": "CNC(=O)c1cc(Oc2ccc(NC(=O)Nc3ccc(Cl)c(C(F)(F)F)c3)cc2)ccn1", "note": "[SORAFENIB]", "values": [{"measurement": "fold change (FC)", "setting": "[1]", "result": 4.3}, {"measurement": "fold change (FC)", "setting": "[2]", "result": 2.3}]}, {"smiles": "C/C=C(\\C)C(=O)[C@H](C)/C=C(C)/C=C/C/C(C)=C/Cc1nc(OC)c(OC)c(O)c1C", "values": [{"measurement": "pKd", "setting": "[3]", "result": 5.14}]}, {"smiles": "O=C(O)Cc1cccc(OCCCN(Cc2cccc(C(F)(F)F)c2Cl)CC(c2ccccc2)c2ccccc2)c1", "values": [{"measurement": "pKd", "setting": "[3]", "result": 5.16}]}, {"smiles": "CC(C)c1c(C(=O)Nc2ccccc2)c(-c2ccccc2)c(-c2ccc(F)cc2)n1CC[C@@H](O)C[C@@H](O)CC(=O)O", "note": "[ATORVASTATIN]", "values": [{"measurement": "fold change (FC)", "setting": "[4]", "result": 2.4}]}]}
